Experimental findings from patent US20180221329A1, “CIS- AND TRANS-SUFFRUTICOSOL D AS THERAPEUTIC AGENTS” (MIDDLE TENNESSEE STATE UNIVERSITY, priority 2015, published 2018) are described below.

Assay [1] has as its system MCF-7 (estrogen receptor-positive human breast adenocarcinoma) cells. As to the kind of experiment: Cell proliferation assay (AlamarBlue), MCF-7. It is filed as cell-based. The following applies: for IC50: MCF-7, 48 h, AlamarBlue; for Selectivity: MCF-7 versus normal HMEC cells. The method, then: Cell culture. Four human cancer cell lines including A549 (lung carcinoma), BT20 (estrogen receptor-negative human breast adenocarcinoma), MCF-7 (estrogen receptor-positive human breast adenocarcinoma) and U2OS (human osteosarcoma) were purchased from American Type Culture Collection (ATCC). An A549 cell line that stably expresses Green Fluorescent Protein (GFP) was purchased from Cell BioLabs Inc. (San Diego, Calif., USA). A549, A549-GFP and BT20 cells were cultured in RPMI 1640 media (Sigma-Aldrich, St. Louis, Mo., USA), MCF7 cells were cultured in DMEM medium (ATCC, Manassas, Va., USA), and U20S cells were cultured in McCoy's 5A medium (ATCC, Manassas, Va., USA). As a control, HMEC cells (primary human mammary breast epithelial cells) were purchased from ATCC and cultured in McCoy's 5A medium. All medium contained 10% FBS (Sigma-Aldrich, St. Louis, Mo., USA) and 1% streptomycin and penicillin (Sigma-Aldrich, St. Louis, Mo., USA). These cells were incubated in a humid environment with 5% CO2 at 37° C.
Cell proliferation assay. The resazurin reduction reagent AlamarBlue (Invitrogen, Frederick, Md., USA) was used to evaluate the cytotoxicity of the compounds. Cells were plated at a density of 5×10^3 cells per well in 96-well microplates with 100 μl culture medium, and were allowed to attach for 16 h prior to treatment. Next, all the medium was replaced with medium containing the cis- or trans-suffruticosol D compounds at seven different concentrations: 320, 100, 32, 10, 3.2, 1.0, and 0.32 μM. The cells were placed in an incubator for 48 h at 37° C. Cells that were treated with medium-containing vehicle (1% DMSO) only serve as negative control. Subsequently, AlamarBlue solution was added to the medium and the cells were incubated in the CO2 incubator for 1 h. The fluorescent intensity change of the dye was measured at Ex 555 nm and Em 590 nm using a plate reader (Molecular Devices, Sunnyvale, Calif., USA). The cytotoxicity was examined by determining by IC50, the dose that inhibited 50% of cell growth, using GraphPad Prism software (GraphPad Software, La Jolla, Calif., USA).
Table 1. IC50 values of cis- and trans-suffruticosol D in selected cancer and normal cell lines. Cells were treated with various concentrations of cis- or trans-suffruticosol D for 48 h, and the viability of cells was evaluated with AlamarBlue dye.
(The colour change of resazurin is a common sign of viable cells or microbes.)

In a further assay the test system is A549 cells. The assay is described as follows: Oxidative stress assay (ROS, DHE, HCS reader). It is filed as cell-based, human. The following applies: 24 h. The method, then: FIGS. 3A and 3B depict induction of oxidative stress by cis- and trans-suffruticosol D in A549 cells. A549 cells were treated with various concentrations of cis- or trans-suffruticosol D for 24 h, then stained with Hoechst and dihydroethidium (DHE) dye. Cells treated with Doxorubicin served as a positive control, and cells treated with vehicle only served as a negative control. The reactive oxygen species (ROS) levels were measured by the fluorescent intensity of DHE that was converted to ethidium bromide.
Oxidative stress assay. The Hitkit oxidative stress kit (Thermo Scientific, Waltham, Mass., USA) was used to determine the generation of reactive oxygen species (ROS) according to the manufacturer's instructions. Briefly, A549 cells were treated with cis- or trans-suffruticosol D for 24 h, fixed with warm 37% formaldehyde and stained with Hoechst and dihydroethidium (DHE) dye for 30 min at 37° C. with 5% CO2. Doxorubicin (DOX) at 1 μM concentration was used as a positive control and cells treated with vehicle only were used as negative control. ROS generation in the nuclei was indicated by the production of the fluorescent ethidium, and assessed by measuring the nuclear fluorescent intensity using an ArrayScan VTI High-content screening (HCS) reader (Thermo Scientific, Waltham, Mass., USA). Images were acquired and data was analyzed by vHCS Scan software.

Another assay relates to phosphorylated NF-κB p65. As to the kind of experiment: Western blotting analysis of TNF-α-induced NF-κB p65 phosphorylation. The format is cell-based, human. The note with it: 50 μM, 3 h, then 10 ng/mL TNF-α 30 min, A549. On the procedure:
Western blotting analysis. A549 cells were treated with 50 μM of cis- or trans-suffruticosol D for 3 h then incubated with 10 ng/mL of TNF-α for 30 min. Cells treated with the NF-κB inhibitor Bay11-7082 (10 μM) (Sigma-Aldrich) were used as a positive control, and cells treated with vehicle only were used as a negative control. After treatment, the cells were lysed using M-PER mammalian protein extraction reagent (Pierce PERBIO, Rockford, Ill.) containing proteinase and phosphatase inhibitors (Sigma-Aldrich, USA) and centrifuged at 13,000 rpm for 5 min at 4° C. A Pierce BCA protein assay kit (Thermo Fisher Scientific, Waltham, Mass., USA) was used to determined protein concentrations. Proteins were separated on a 4-20% Tris Glycine gel (Thermo Fisher Scientific, Waltham, Mass., USA), and electrophoretically transferred to a PVDF membrane. The following primary antibodies were used: phosphorylated-NF-κB p65, NF-κB p65 (Cell Signaling Technology, Danver, Mass.) and actin (Santa Cruz Biotechnology, Dallas, Tex.). The membrane was incubated with the primary antibodies at a 1:1000 concentration at 4° C. overnight. After washing with 1×PBS 5 times, the membrane was incubated for 2 h at room temperature with HRP linked anti-rabbit IgG secondary antibodies. […]

In assay [1] (listed as cis-SD), `Oc1ccc(C=Cc2c3c(cc4c2[C@@H](c2cc(O)cc(O)c2)[C@H](c2ccc(O)cc2)O4)O[C@H](c2ccc(O)cc2)[C@@H]3c2cc(O)cc(O)c2)cc1` [cis-suffruticosol D] displayed an IC50 of 46.8 ± 3.3 µM. The Selectivity in assay [1] (listed as cis-SD) amounted to 5.8. The entries for the “increase of ROS levels” value with A549 cells (10 μM), with A549 cells (32 μM) and with A549 cells (100 μM) were 32.8%, 55.6% and 73.1%, respectively. Also, in the assay on phosphorylated NF-κB p65, the “expression of phosphorylated NF-κB p65 upon TNF-α stimulation” value is on record as “blocked as effectively as the blockage caused by the Bay11-7082 inhibitor control”.
Regarding `Oc1ccc(/C=C/c2c3c(cc4c2[C@@H](c2cc(O)cc(O)c2)[C@H](c2ccc(O)cc2)O4)O[C@H](c2ccc(O)cc2)[C@@H]3c2cc(O)cc(O)c2)cc1` [trans-suffruticosol D], in assay [1] (listed as trans-SD), the IC50 was found to be 15.8 ± 1.6 µM. In assay [1] (listed as trans-SD), the Selectivity was found to be 9.3. Further, the figures for the “increase of ROS levels” value in the assay on A549 cells (10 μM), with A549 cells (32 μM) and in the assay with A549 cells (100 μM) were 32.8%, 34.6% and 87.2%, respectively. Besides, the “expression of phosphorylated NF-κB p65 upon TNF-α stimulation” value in the assay on phosphorylated NF-κB p65 was “almost completely blocked”.

What is called IC50 is the concentration needed to halve the response being measured. A higher IC50 goes with lower potency.
